The source of these data is US20140093588A1 (Fred Hutchinson Cancer Research Center, priority 2006, published 2014).

Series [1] deals with LPS-induced IL-1 and TNF production. In words: Bacterial lipopolysaccharide endotoxemia in mice, IL-1β and TNFα plasma levels by ELISA. The series is classed as in vivo, C57/BI6 mice. Conditions: Tin-protoporphyrin IX 6 mg/kg ip, 30 min before Alzet H2S treatment. The procedure:
Four groups of C57/BI6 mice were subjected to bacterial lipopolysaccharide (5 mg/kg ip). Three groups received H2S treatment (0.2 mg/kg/hr, 4 hrs), and a control group received saline using Alzet osmotic minipumps 30 minutes prior to the induction of endotoxemia (n=7−10/group) in both cases. The effect of the heme oxygenase inhibitor tin-protoporphyrin IX (6 mg/kg, ip, 30 min earlier to Alzet treatment) was also examined in two groups. After 4 hours, the animals were anesthetized using pentobarbital (60 mg/kg ip) and blood samples were taken. IL-1β and TNFα plasma levels were measured using a commercially available ELISA kit (R&D Systems).
For orientation: ELISA stands for enzyme-linked immunosorbent assay.

For series [2], the system named is Murine J774 macrophages. In words: Cell viability (MTT reduction) of macrophages treated with GSNO or ONOO— after sulfide pretreatment. The series is classed as cell-based. Conditions: H2S tested on cells to define the highest tested concentration that would reduce viability. In general terms: Formazan colour is commonly taken as a measure of viable cells.
Method: Cells were cultured in 96-well plates until cells reached confluence essentially as described in C.
Cell respiration, an indicator of cell viability, was assessed by the mitochondrial-dependent reduction of MTT to formazen (Gross and Levi, 1992). Cells in 96-well plates were incubated at 37° C. with MTT (0.2 mg/ml for 60 min). Culture medium was removed by aspiration, and the cells were solubilized in DMSO. The extent of reduction of MTT to formazan within cells was quantitated by OD550 measurement.
H2S was tested on cells to define the highest tested concentration that would reduce viability. […] Following pretreatment, cells were treated with GSNO (1 mM, 3 mM, or 10 mM). Cell viability was measured at three hours.
Following pretreatment, ONOO— was added at concentrations of 0.3 mM, 0.6 mM, or 1 mM. Cell viability was measured at three hours.
Three hours after treatment, cell viability was measured.
In a related experiment, Murine J774 macrophages were grown until confluency in 96 well plates. Cells were pretreated with H2S (30 mM, 60 mM, 100 mM, 1 mM) for 30 minutes or 24 hours, then cells were incubated with GSNO or ONOO— for 3 hours. GSNO was used in 1 mM and 3 mM concentrations, while ONOO— was used in 300 mM concentration. Following treatment, cells were incubated for 20 minutes with fresh media containing 0.05% MTT. […] Optical density was measured at 550 nm.
For series [3] the following is noted: cited from earlier work.
For series [4] the following is noted: at STP; cited from earlier work.

Consider `C=Cc1c2[n-]c(c1C)/C=c1\[n-]/c(c(C)c1C=C)=C\c1[n-]c(c(CCC(=O)O)c1C)C=c1[n-]/c(c(C)c1CCC(=O)O)=C\2.[Sn+4]` [Tin-protoporphyrin IX, tin-protoporphyrin IX], for which, in series [1], the “effect of H2S on IL-1 after pretreatment with the heme oxygenase inhibitor” value was “attenuated”. In the case of `S` [H2S, hydrogen sulfide], the “concentration that may confer a protective effect” value in series [2] was 1 mM. In the case of `O=NOO` [peroxynitrite], the half-life in series [3] was around 1 s. For the compound `[N]=O` [NO, nitric oxide], the “soluble in water up to a concentration” value in series [4] is “about 2 mM”.

One may read the half-life as how long it takes for the measured level to halve.
